# Assay results: patent publication US20240279221A1, “HETEROCYCLIC COMPOUNDS AND METHODS OF USE” (Schrödinger, Inc., priority 2021, published 2024)
# Molecular target: SOS1:KRAS (G12C) interaction (Homo sapiens (Human), UniProt Q07889)
# Assay: SOS1-KRas(G12C) FRET Assay
# Type: binding
# Conditions: 0.5 nM His10-SOS1 (res. 564-1049), 2.5 nM GST-KRAS (res. 1-169, G12C); read-out: SOS-KRas(G12C) FRET IC50
# Method: Inhibition of the SOS1:KRAS interaction was measured using purified GST-tagged KRAS (res. 1-169, G12C, purified based on Hillig, et al., Proc Natl Acad Sci USA (2019); 116(7):2551-2560) and recombinant His10-SOS1 (res. 564-1049; purified based on Hillig, et al.). The final assay was performed at 20 uL with 0.5 nM SOS1 protein and 2.5 nM KRAS protein in a buffer of PBS, 0.1% BSA, 5 mM MgCl2, 0.0025% Igepal, 100 mM KF, 5 mM DTT in a white 384 square well OptiPlate (PerkinElmer, Cat. 6007290). A 2× KRAS working solution was prepared in an assay buffer containing 5 nM GST-KRAS G12C and 2 nM anti-GST-Eu(K) (Cisbio, Cat. 61GSTKLA) and pre-incubated for 15 minutes at 25° C. Compounds were serially diluted in 100% DMSO from 2 mM (positive control, compound I-13, PCT Publ. No. WO2018/115380) or 20 mM and then diluted 1:20 in assay buffer before incubation with a solution of SOS1 protein mixed 1:5 with anti-6His-XL665 FRET donor (Cisbio, Cat. 61HISXL) for 15 minutes at 25° C. before addition of 2× KRAS working solution. The final DMSO concentration is 0.5%. Plates were incubated at RT for 2 hrs before the FRET signal was measured using Envision at emission 665 nm and 615 nm. FRET signal was converted to percentage of protein-protein interaction using the following equation:
# [formula] • C: signal with compound treatment • P: signal for positive control (DMSO) • N: signal for negative control (no SOS1 added) • IC50 and Hill coefficients were obtained using Graph Pad Prism (Graph Pad software, Inc, USA) with non-linear regression analysis.
# Sequence of SOS1:KRAS (G12C) interaction (Q07889 564-1049, stated change not applied): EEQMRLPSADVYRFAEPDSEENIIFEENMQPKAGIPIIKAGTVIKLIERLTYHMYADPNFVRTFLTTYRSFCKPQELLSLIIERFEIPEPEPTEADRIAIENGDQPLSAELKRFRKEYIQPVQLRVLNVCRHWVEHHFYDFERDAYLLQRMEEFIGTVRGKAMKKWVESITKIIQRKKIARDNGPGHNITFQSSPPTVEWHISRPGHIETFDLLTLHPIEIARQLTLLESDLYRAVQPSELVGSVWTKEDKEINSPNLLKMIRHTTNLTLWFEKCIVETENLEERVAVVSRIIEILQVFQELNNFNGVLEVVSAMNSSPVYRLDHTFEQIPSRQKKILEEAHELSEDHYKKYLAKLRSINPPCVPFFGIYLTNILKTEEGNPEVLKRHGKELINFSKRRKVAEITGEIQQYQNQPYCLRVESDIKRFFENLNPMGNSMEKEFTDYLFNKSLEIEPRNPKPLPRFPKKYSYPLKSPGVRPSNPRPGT
row,Compound,IC50 [µM]
1,"CCn1nc(N[C@H](C)c2cccc(C(F)(F)F)c2C)c2cn(C3CC3)c(=O)cc2c1=O [Example 8, (R)-6-cyclopropyl-2-ethyl-4-((1-(2-methyl-3-(trifluoromethyl)phenyl)ethyl)amino)-2,6-dihydropyrido[3,4-d]pyridazine-1,7-dione]",1.31
2,"Cc1c([C@@H](C)Nc2nn(C)c(=O)c3cc(=O)n(C4CCN(C)CC4)cc23)cccc1C(F)(F)F [Example 23, (R)-2-methyl-4-((1-(2-methyl-3-(trifluoromethyl)phenyl)ethyl)amino)-6-(1-methylpiperidin-4-yl)-2,6-dihydropyrido[3,4-d]pyridazine-1,7-dione]",1.95
3,"C[C@H](Nc1nn(C)c(=O)c2cc(=O)n(C3CCOCC3)cc12)c1cccc2sccc12 [Example 63, (S)-4-((1-(benzo[b]thiophen-4-yl)ethyl)amino)-2-methyl-6-(tetrahydro-2H-pyran-4-yl)-2,6-dihydropyrido[3,4-d]pyridazine-1,7-dione]",> 10
4,"C[C@H](Nc1nn(C)c(=O)c2cc(=O)n(C3CC3)cc12)c1cccc2sccc12 [Example 65, (S)-4-((1-(benzo[b]thiophen-4-yl)ethyl)amino)-6-cyclopropyl-2-methyl-2,6-dihydropyrido[3,4-d]pyridazine-1,7-dione]",> 100
5,"C[C@@H](Nc1nn(C)c(=O)c2c(OC3CC(F)(F)C3)c(=O)n(C3(C(F)F)CC3)cc12)c1cccc(C(F)F)c1F [Example 87, (R)-8-(3,3-difluorocyclobutoxy)-4-((1-(3-(difluoromethyl)-2-fluorophenyl)ethyl)amino)-6-(1-(difluoromethyl)cyclopropyl)-2-methylpyrido[3,4-d]pyridazine-1,7(2H,6H)-dione]",0.118
6,"C[C@@H](Nc1nn(C)c(=O)c2c(O[C@H]3C[C@H](F)C3)c(=O)n(C3(C(F)F)CC3)cc12)c1cccc(C(F)F)c1F [Example 89, 4-(((R)-1-(3-(difluoromethyl)-2-fluorophenyl)ethyl)amino)-6-(1-(difluoromethyl)cyclopropyl)-8-((1r,3R)-3-fluorocyclobutoxy)-2-methylpyrido[3,4-d]pyridazine-1,7(2H,6H)-dione]",0.122
7,"C[C@@H](Nc1nn(C)c(=O)c2cc(=O)n(C3CC3)cc12)c1ccc2c(c1)CCCC2 [Example 101, (R)-6-cyclopropyl-2-methyl-4-((1-(5,6,7,8-tetrahydronaphthalen-2-yl)ethyl)amino)-2,6-dihydropyrido[3,4-d]pyridazine-1,7-dione]",> 100
8,"C[C@H](Nc1nn(C)c(=O)c2cc(=O)n(C3CC3)cc12)c1ccc2c(c1)CCCC2 [Example 102, (S)-6-cyclopropyl-2-methyl-4-((1-(5,6,7,8-tetrahydronaphthalen-2-yl)ethyl)amino)-2,6-dihydropyrido[3,4-d]pyridazine-1,7-dione]",3.79
9,"C[C@H](Nc1nn(C)c(=O)c2cc(=O)n(C3CC3)cc12)c1cccc(C(F)(F)CO)c1F [Example 103, (S)-6-cyclopropyl-4-((1-(3-(1,1-difluoro-2-hydroxyethyl)-2-fluorophenyl)ethyl)amino)-2-methyl-2,6-dihydropyrido[3,4-d]pyridazine-1,7-dione]",7.8
10,"C[C@H](Nc1nn(C)c(=O)c2cc(=O)n(C3CC3)cc12)c1cccc(C(F)(F)C(=O)N(C)C)c1F [Example 105, (S)-2-(3-(1-((6-cyclopropyl-2-methyl-1,7-dioxo-1,2,6,7-tetrahydropyrido[3,4-d]pyridazin-4-yl)amino)ethyl)-2-fluorophenyl)-2,2-difluoro-N,N-dimethylacetamide]",> 10
11,"C[C@@H](Nc1nn(C)c(=O)c2cc(=O)n(C3CC3)cc12)c1cccc(C(F)(F)C(=O)N(C)C)c1F [Example 106, (R)-2-(3-(1-((6-cyclopropyl-2-methyl-1,7-dioxo-1,2,6,7-tetrahydropyrido[3,4-d]pyridazin-4-yl)amino)ethyl)-2-fluorophenyl)-2,2-difluoro-N,N-dimethylacetamide]",0.366
12,"CNC(=O)C(F)(F)c1cccc([C@H](C)Nc2nn(C)c(=O)c3cc(=O)n(C4CC4)cc23)c1F [Example 108, (S)-2-(3-(1-((6-cyclopropyl-2-methyl-1,7-dioxo-1,2,6,7-tetrahydropyrido[3,4-d]pyridazin-4-yl)amino)ethyl)-2-fluorophenyl)-2,2-difluoro-N-methylacetamide]",> 10
13,"Cn1nc(N[C@@H](c2cccc(C(F)(F)F)c2)C(F)F)c2cn(C3CC3)c(=O)cc2c1=O [Example 111, (S)-6-cyclopropyl-4-((2,2-difluoro-1-(3-(trifluoromethyl)phenyl)ethyl)amino)-2-methylpyrido[3,4-d]pyridazine-1,7(2H,6H)-dione]",0.631
14,"Cn1nc(N[C@H](c2cccc(C(F)(F)F)c2)C(F)F)c2cn(C3CC3)c(=O)cc2c1=O [Example 112, (R)-6-cyclopropyl-4-((2,2-difluoro-1-(3-(trifluoromethyl)phenyl)ethyl)amino)-2-methylpyrido[3,4-d]pyridazine-1,7(2H,6H)-dione]",> 10
15,"C[C@H](Nc1nn(C)c(=O)c2cc(=O)n(C3(C(F)F)CC3)cc12)c1cccc2cccn12 [Example 113, (S)-6-(1-(difluoromethyl)cyclopropyl)-4-((1-(indolizin-5-yl)ethyl)amino)-2-methyl-2,6-dihydropyrido[3,4-d]pyridazine-1,7-dione]",> 10

# More lines, now with the values ahead:
row,IC50 [µM],Compound
1,0.0304,"COc1c(=O)n(C2CCOCC2)cc2c(N[C@H](C)c3cccc(C(C)(F)F)c3F)nn(C)c(=O)c12 [Example 37, (R)-4-((1-(3-(1,1-difluoroethyl)-2-fluorophenyl)ethyl)amino)-8-methoxy-2-methyl-6-(tetrahydro-2H-pyran-4-yl)-2,6-dihydropyrido[3,4-d]pyridazine-1,7-dione]"
2,0.192,"COc1c(=O)n(C2CC2)cc2c(N[C@H](C)c3cccc(C(F)F)c3F)nn(C)c(=O)c12 [Example 85, (R)-6-cyclopropyl-4-((1-(3-(difluoromethyl)-2-fluorophenyl)ethyl)amino)-8-methoxy-2-methyl-2,6-dihydropyrido[3,4-d]pyridazine-1,7-dione]"
3,0.0353,"C[C@@H](Nc1nn(C)c(=O)c2c(OCCN(C)C)c(=O)n(C3(C(F)F)CC3)cc12)c1cccc(C(F)F)c1F [Example 86, (R)-4-((1-(3-(difluoromethyl)-2-fluorophenyl)ethyl)amino)-6-(1-(difluoromethyl)cyclopropyl)-8-(2-(dimethylamino)ethoxy)-2-methyl-2,6-dihydropyrido[3,4-d]pyridazine-1,7-dione]"
4,0.0835,"C[C@@H](Nc1nn(C)c(=O)c2c(OC3COC3)c(=O)n(C3(C(F)F)CC3)cc12)c1cccc(C(F)F)c1F [Example 88, (R)-4-((1-(3-(difluoromethyl)-2-fluorophenyl)ethyl)amino)-6-(1-(difluoromethyl)cyclopropyl)-2-methyl-8-(oxetan-3-yloxy)pyrido[3,4-d]pyridazine-1,7(2H,6H)-dione]"
5,0.0597,"C[C@@H](Nc1nn(C)c(=O)c2c(OCC3COC3)c(=O)n(C3(C(F)F)CC3)cc12)c1cccc(C(F)F)c1F [Example 90, (R)-4-((1-(3-(difluoromethyl)-2-fluorophenyl)ethyl)amino)-6-(1-(difluoromethyl)cyclopropyl)-2-methyl-8-(oxetan-3-ylmethoxy)-2,6-dihydropyrido[3,4-d]pyridazine-1,7-dione]"
6,0.037,"C[C@@H](Nc1nn(C)c(=O)c2cc(=O)n(C3CC3)cc12)c1cccc(C(F)(F)CO)c1F [Example 104, (R)-6-cyclopropyl-4-((1-(3-(1,1-difluoro-2-hydroxyethyl)-2-fluorophenyl)ethyl)amino)-2-methyl-2,6-dihydropyrido[3,4-d]pyridazine-1,7-dione]"
7,0.271,"CNC(=O)C(F)(F)c1cccc([C@@H](C)Nc2nn(C)c(=O)c3cc(=O)n(C4CC4)cc23)c1F [Example 107, (R)-2-(3-(1-((6-cyclopropyl-2-methyl-1,7-dioxo-1,2,6,7-tetrahydropyrido[3,4-d]pyridazin-4-yl)amino)ethyl)-2-fluorophenyl)-2,2-difluoro-N-methylacetamide]"
8,0.12,"COC(C)(C)C(F)(F)c1cccc([C@@H](C)Nc2nn(C)c(=O)c3cc(=O)n(C4CC4)cc23)c1F [Example 109, (R)-6-cyclopropyl-4-((1-(3-(1,1-difluoro-2-methoxy-2-methylpropyl)-2-fluorophenyl)ethyl)amino)-2-methyl-2,6-dihydropyrido[3,4-d]pyridazine-1,7-dione]"
9,0.0481,"COC(C)(C)C(F)(F)c1cccc([C@@H](C)Nc2nn(C)c(=O)c3cc(=O)n(C4(C(F)F)CC4)cc23)c1F [Example 110, (R)-4-((1-(3-(1,1-difluoro-2-methoxy-2-methylpropyl)-2-fluorophenyl)ethyl)amino)-6-(1-(difluoromethyl)cyclopropyl)-2-methyl-2,6-dihydropyrido[3,4-d]pyridazine-1,7-dione]"
